The record followed here is patent publication US20040053913A1, “Process for preparing 6-alkylidene penem derivatives” (priority 2002, published 2004).

In series [1] the target is class A β-lactamase Imi-1 from Enterobacter cloacae (Enterobacter cloacae, UniProt Q46991). Briefly: β-Lactamase inhibition, spectrophotometric nitrocefin hydrolysis assay, Imi-1. The format is biochemical. The settings on record: enzyme 7.1 nM; 10 minutes preincubation at 25° C.; nitrocefin 50 μg/ml; 50 mM PO4, pH 7.0. The method, then: (§1) IC50 Determination for the Penem Inhibitor
Chain of class A β-lactamase Imi-1 from Enterobacter cloacae (Q46991 entry or part of it): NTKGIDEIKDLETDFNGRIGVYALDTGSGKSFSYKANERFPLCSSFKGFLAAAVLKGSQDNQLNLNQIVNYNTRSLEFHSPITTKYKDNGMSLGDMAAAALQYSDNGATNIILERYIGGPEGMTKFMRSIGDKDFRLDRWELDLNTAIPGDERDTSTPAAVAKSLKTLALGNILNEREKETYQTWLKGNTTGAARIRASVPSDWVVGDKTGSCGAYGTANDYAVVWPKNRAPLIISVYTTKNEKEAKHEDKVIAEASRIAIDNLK
(§2) β-Lactamase inhibitory activity of the penem inhibitors was determined spectrophotometrically as described by Bush et al., [Bush, K., Macalintal, C., Rasmussen, B. A., Lee, V. and Yang, Y. Antimicrobial Agents and Chemotherapy 1993, 37, 851]. Homogeneously purified class A β-lactamases TEM-1 from E. coli and Imi-1 from Enterobacter cloacae, class B enzyme CcrA from Bacteroides fragilis and class C enzyme AmpC from Enterobacter cloaca were employed in the assay. The enzyme concentrations for TEM-1, Imi-1, CcrA and AmpC were 4.3, 7.1, 1.2 and 2.1 nM, respectively. A wide range of inhibitor concentrations were prepared in 50 mM PO4, pH 7.0 to include the possible IC50 values. The substrate used to initiate the enzyme reaction was nitrocefin at 50 μg/ml in the same buffer as the inhibitor. Initially the enzyme and inhibitor (20 μl each) were preincubated for 10 minutes at 25° C. prior to the addition of 160 μl volume of nitrocefin. Initial rates of hydrolysis were monitored for 5 minutes at 495 nm using a Molecular Devices Spectra Max 250 with kinetic protocol of SoftMax Program. Readings from the Spectra Max 250 were exported and transferred to Microsoft Excel. The percent of inhibition of each inhibitor concentration was calculated based on the control enzyme activity. The inhibitor concentration that caused a 50% reduction in the enzymatic activity (IC50) was determined graphically.

Series [2] concerns the target class A β-lactamases TEM-1 from E. coli (Escherichia coli, UniProt P62593). Nature of the series: β-Lactamase inhibition, spectrophotometric nitrocefin hydrolysis assay, TEM-1. The format is biochemical. The settings on record: enzyme 4.3 nM; 10 minutes preincubation at 25° C.; nitrocefin 50 μg/ml; 50 mM PO4, pH 7.0. The method, then:
as §1, §2

In series [3] the target is class B enzyme CcrA from Bacteroides fragilis (Bacteroides fragilis, UniProt P25910). Nature of the series: β-Lactamase inhibition, spectrophotometric nitrocefin hydrolysis assay, CcrA. The format is biochemical. The settings on record: enzyme 1.2 nM; 10 minutes preincubation at 25° C.; nitrocefin 50 μg/ml; 50 mM PO4, pH 7.0; read-out: IC50 (nM) Ccr-A. The method, then:
as §1, §2

Series [4] has as its target class C enzyme AmpC from Enterobacter cloaca (Enterobacter cloacae, UniProt P05364). Nature of the series: β-Lactamase inhibition, spectrophotometric nitrocefin hydrolysis assay, AmpC. It is filed as biochemical. The settings on record: enzyme 2.1 nM; 10 minutes preincubation at 25° C.; nitrocefin 50 μg/ml; 50 mM PO4, pH 7.0; read-out: IC50 (nM) Amp-C. The method, then:
as §1, §2

Series [5] is described as follows: Comparative thermal stability in a solid state, residual ratio checked by HPLC. The format is physicochemical. The settings on record: for Residual Ratio (%): Temp. 40° C. in a solid state, HPLC. An excerpt: One important aspect of the present invention relates to the use of stable bromopenem intermediate 16. The stability of the intermediate is relevant to the aldol condensation step where the decomposition is minimized [as well as to the shelf life stability]. In this invention the key intermediate 16, where R=para-Nitrobenzyl group is a stable and a crystalline intermediate. […] (Table 1) This remarkable stability of intermediate 16 enhances the shelf-life time of the compound as well as the scale-up feasibility. As mentioned above, protection of carboxyl group with para-Nitrobenzyl group reduces the number of steps in the present process of preparing the final compound of structure I. The crystalline nature of the intermediate was established by X-ray diffraction studies.
Column: Inertsil SIL 100-5 4.6×150 mm (GL Science Inc.)
Mobile phase; Ethylacetae: n-hexane (10:35 vv)
Wave length: […]; Flow rate: 1.0 ml/min @ Room temperature.

Counter-ions that a name gives are not always drawn.

Chain of class C enzyme AmpC from Enterobacter cloaca (P05364 21-381): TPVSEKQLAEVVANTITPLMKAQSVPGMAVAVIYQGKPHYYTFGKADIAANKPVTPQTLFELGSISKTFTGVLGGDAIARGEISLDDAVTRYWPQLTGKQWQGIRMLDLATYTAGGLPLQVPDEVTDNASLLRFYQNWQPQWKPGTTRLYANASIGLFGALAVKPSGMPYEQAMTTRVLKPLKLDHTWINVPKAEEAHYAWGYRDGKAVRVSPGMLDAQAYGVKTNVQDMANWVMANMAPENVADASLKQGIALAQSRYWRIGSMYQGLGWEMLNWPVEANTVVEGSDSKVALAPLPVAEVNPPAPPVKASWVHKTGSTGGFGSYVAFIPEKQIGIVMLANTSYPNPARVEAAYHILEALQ
Chain of class B enzyme CcrA from Bacteroides fragilis (P25910 19-249): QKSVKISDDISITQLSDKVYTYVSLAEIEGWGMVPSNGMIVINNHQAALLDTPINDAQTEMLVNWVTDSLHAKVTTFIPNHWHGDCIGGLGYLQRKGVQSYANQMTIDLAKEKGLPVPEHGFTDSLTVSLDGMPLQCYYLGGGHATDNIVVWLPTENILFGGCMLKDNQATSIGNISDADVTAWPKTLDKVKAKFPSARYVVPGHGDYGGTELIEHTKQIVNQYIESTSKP
Chain of class A β-lactamases TEM-1 from E. coli (P62593 24-286 limits assumed): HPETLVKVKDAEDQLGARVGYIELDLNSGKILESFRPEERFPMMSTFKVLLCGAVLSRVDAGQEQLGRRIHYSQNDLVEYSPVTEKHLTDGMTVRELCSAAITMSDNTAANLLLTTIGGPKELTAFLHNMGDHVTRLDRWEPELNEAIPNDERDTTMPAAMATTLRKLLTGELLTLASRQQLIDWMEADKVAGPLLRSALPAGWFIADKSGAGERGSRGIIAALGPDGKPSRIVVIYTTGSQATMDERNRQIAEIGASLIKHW

Regarding `O=C(O)C1=CS[C@@H]2/C(=C\c3c[nH]c(Cc4ccccc4)n3)C(=O)N12` [Example 3, (5R), (6Z)-6-(2-Benzyl-1H-imidazol-4-ylmethylene)-7-oxo-4-thia-1-aza-bicyclo[3.2.0]hept-2-ene-2-carboxylic Acid Sodium Salt], the IC50 turned out to be 1300 nM in series [1], 1.2 nM in series [2], 190 nM in series [3] and 0.8 nM in series [4].
The corresponding values for `O=C(O)C1=CS[C@@H]2/C(=C\c3c[nH]c(-c4nccs4)n3)C(=O)N12` [Example 4, (5R), (6Z)-6-(2-thiazol-2-yl-1H-imidazol-4-ylmethylene)-7-oxo-4-thia-1-aza-bicyclo[3.2.0]hept-2-ene-2-carboxylic Acid Sodium Salt] are 5.8 nM, 0.4 nM, 230 nM and 2.3 nM.
The corresponding values for `O=C(O)C1=CS[C@@H]2/C(=C\c3c[nH]c(-c4ccccc4)n3)C(=O)N12` [Example 6, (5R), (6Z)-6-(2-phenyl-1H-imidazol-4-ylmethylene)-7-oxo-4-thia-1-aza-bicyclo[3.2.0]hept-2-ene-2-carboxylic Acid] are 11 nM, 5.6 nM, 220 nM and 2.9 nM.
For `O=C(OCc1ccc([N+](=O)[O-])cc1)C1=CS[C@@H]2[C@@H](Br)C(=O)N12` [Example 16], the “comparative thermal stability (in words)” value in series [5] (intermediate 16 versus intermediate Q) is given as “more stable than the intermediate Q”.
For `O=C(OCc1ccc([N+](=O)[O-])cc1)C1=CS[C@@H]2[C@@H](Br)C(=O)N12` [Formula 16, 4-nitrobenzyl (5R,6S)-6-bromopenem-3-carboxylate], the “Residual Ratio (%)” value in series [5] (Day 0) amounted to 100.0%; in series [5] (Day 1) it was 100.0%; in series [5] (Day 2), 100.0%; in series [5] (Day 4), 100.0%; in series [5] (Day 7), 98.7%; in series [5] (Day 14), 98.4%.
Regarding `COc1ccc(COC(=O)C2=CS[C@@H]3[C@@H](Br)C(=O)N23)cc1` [Formula Q, reference compound], the “Residual Ratio (%)” value stood at 100.0% in series [5] (Day 0); 99.7% in series [5] (Day 1); 95.3% in series [5] (Day 2); 72.9% in series [5] (Day 4); 69.8% in series [5] (Day 7).
As to “(5R), (6Z)-6-(1-Methyl-2-thiazol-2-yl-1H-imidazol-4-ylmethylene)-7-oxo-4-thia-1-aza-bicyclo[3.2.0]hept-2-ene-2-carboxylic Acid Sodium Salt [Example 5]”, the IC50 in series [1] is 68 nM; in series [2], 5.2 nM; in series [3] it was 260 nM; in series [4], 5.6 nM.
Take “(5R), (6Z)-6-(3,1′-Dimethyl-3H,1′H-[2,4′]biimidazolyl-4-ylmethylene)-7-oxo-4-thia-1-aza-bicyclo[3.2.0]hept-2-ene-2-carboxylic Acid Sodium Salt [Example 2]”: the IC50 in series [1] is 6 nM; in series [2], 4.1 nM; in series [3], 250 nM; in series [4], 2.1 nM.

Broadly, the IC50 is the concentration that inhibits the measured activity by half.
